# Source: patent US4959368A, “Therapeutic agent for neurological diseases” (Mitsui Petrochemical Industries Ltd., priority 1986, dated 1990)
# What was measured:
# [1] = tested on: rats with lesioned nigral dopaminergic nerve cells; experiment: Methamphetamine-induced rotational movement of rats with lesioned nigral dopaminergic nerve cells after transplantation of fetal cerebral cells; assay type: in vivo, rat (female Wistar); conditions: number within one minute
# Method: Rats and mice models of central nervous disorders were prepared, and the pharmacological effects of the compounds (I) of this invention were tested. Specifically, nigral dopamine cells of the rat brain were chemically destroyed by injecting a very small amount of 6-hydroxydopamineto induce motor imbalance. Two weeks later, dopamine cells of fetal brain were transplanted in the caudate nucleus into the lesioned side of the rat brain and an attempt was made to improve the motor trouble. Specifically, beginning on the day of transplantation, the compound (I) of the invention was intraperitoneally administered every day over 2 weeks, and the activity of the compounds (I) of the invention on the improvement of the motor imbalance and the growth of the transplanted cells was examined.
# Promoting effect on the improvement of motor imbalance due to injury of the rat's brain cells by transplantation of fetal cerebral cells:
# Nigral dopaminergic nerve cells at the left side of the brain of 4-week old female Wistar rats (body weight 100 g) were lesioned by injecting a very small quantity of 6-hydroxydopamine. […] Upon administration of methamphethamine (5 mg/kg, i.p.) to the rats having the lesioned nigral dopaminergic nerve cells, they began rotational movement toward the lesioned side.
# After two weeks from the destruction by the administration of the drug, portions of the […] containing dopamine cells (i.e., substantia nigra and the tagmentum at the abdomen side) were cut from the brain of a fetal rat of 14 to 17 days of age, cut finely, and treated with trypsin. Then, the extracted tissues were incubated at 37° C. for 30 minutes, and the tissues were subjected to pipetting to form a suspension. Five microliters of the suspension was transplanted each into two sites of the caudate nucleus of the lesioned side (10 microliters in total, about 10^5 cells).
# Each of the compounds (I) in a dose of 100 mg/kg (i.p.) was administered every day over two weeks from the day of transplantation. The rotational movements induced by administration of methamphetamine were examined 2 weeks and 1 week before, and 2 weeks and 4 weeks after, the transplantation and the administration of the drug. The number of rotational movements within one minute was counted at intervals of 10 minutes after the administration of methamphetamine, and the total number of rotational movements counted six times was averaged to find a mean number of the rotational movements.
# [2] = tested on: human neuroblastoma cell line GOTO; experiment: Activity on neuroblastoma cell line GOTO (cell number, number and length of neurites); assay type: cell-based; conditions: for Number of cells (mean ± S.E.): control 12.30 ± 1.48
# Summary of the method: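 GOTO cells were cultured 1–2 days at 37 °C, 5% CO2, then switched to serum-free RPMI/MEM (1:1) with compounds in PBS at various concentrations for 24 h. Living cells were counted by erythrosine exclusion (3–6 dishes); neurite number and length per cell were measured from photographs.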
# [3] = tested on: mouse neuroblastoma cell line neuro-2a; experiment: Activity on neuro-2a, cells with outgrown neurites; assay type: cell-based
# Summary of the method: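 Mouse neuro-2a cells in DMEM with FCS exposed to compounds for 24 h (up to 6 concentrations, triplicate runs), glutaraldehyde-fixed and methylene blue-stained. Proportion of cells bearing a neurite at least twice the cell's long diameter counted microscopically over ≥200 cells.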
# [4] = tested on: human neuroblastoma cell line GOTO; experiment: Activity on cell line GOTO (simple method); assay type: cell-based; conditions: Table 2 GOTO Run No. 1; 10 μg/ml; control 8.4
# Method: The biological activities in vitro of the compounds of formula (I) on cells of the nervous system were tested. The cells tested were human neuroblastoma cell line GOTO [see Sekiguchi, M., Oota, T., Sakakibara, K., Inui, N. & Fujii, G., Japan. J. Exp. Med., 49, 67-83 (1979)], and neuroblastoma cell line NB-1 [see Miyake, S., Shimo, Y., Kitamura, T., Nojyo, Y., Nakamura, T., Imkashuku, S. and Abe, T., The Autonomic Nervous System, 10, 115-120 (1973)], and mouse neuroblastoma cell line neuro-2a (Dainippon Pharmaceutical Co., Ltd.) which have been established as the cells of the nervous system. The above neuve cells were grown in an incubator at 37° C. in the presence of 5% carbon dioxide gas exponentially, and then cultivated for a certain period of time together with the compounds of formula (I).
# A culture medium [composed of 45% of RPMI 1640 medium, 45% modified Eagle's medium (MEM) and 10% of fetal calf serum (FCS) and containing penicillin G sodium (100 units/ml) and streptomycin sulfate (100 microgram/ml)] containing neurobalstoma cell line GOTO in the logarithmic growth period was poured in an amount of 2 ml each into polystyrene dishes (35 mm; made by Corning Co.) so that the cell concentration was 2 to 6×10^4 cells per dish, and the cells were cultured for 1 to 2 days in a carbon dioxide gas incubator containing 5% of carbon dioxide gas in air at 37° C. Then, the culture fluid was removed, and 2 ml of a fresh serum-free culture fluid (consisting of 50% of RPMI medium and 50% of MEM medium and containing penicillin G sodium and streptomycin sulfate in the same amounts as above) was added. At the same time, a presterilized PBS solution (phosphate buffered saline) of each of the test compounds in various concentrations was added to each of the dishes. After culturing for 24 hours, the number of living cells was counted. Furthermore, the culture was photographed, and from the photos, the number and length of neurites per cell were measured. The numer of living cells was counted for 3 to 6 dishes by resistance to staining with erythrosine dye. The number and length of the neurites were measured with regard to 6 photos (more than 200 cells per photo).
# As a simple method of evaluation, the number of cells have neurites with a length equal to, or larger than, the long diameter of the cell was divided by the total number of cells.
# [5] = Run No. 1, 1 week before transplantation, saline 12.23 ± 4.88
# [6] = Run No. 1, 2 weeks after transplantation, 100 mg/kg i.p. daily over two weeks, saline 5.9 ± 2.75
# [7] = Run No. 1, 2 weeks before transplantation, saline 10.9 ± 4.57
# [8] = Run No. 1, 4 weeks after transplantation, 100 mg/kg i.p. daily over two weeks, saline 3 ± 3.23
# [9] = Run No. 2, 1 week before transplantation, saline 10 ± 5.3
# [10] = Run No. 2, 2 weeks after transplantation, 100 mg/kg i.p. daily over two weeks, saline 4.4 ± 5.9
# [11] = Run No. 2, 2 weeks before transplantation, saline 12 ± 3.95
# [12] = Run No. 2, 4 weeks after transplantation, 100 mg/kg i.p. daily over two weeks, saline 1.5 ± 3.2
# [13] = Table 1 Run No. 2, 1 μg/ml, control 2.06 ± 0.60
# [14] = Table 1 Run No. 2, 1 μg/ml, control 55.00 ± 37.26
# [15] = Table 1 Run No. 2, 10 μg/ml, control 2.06 ± 0.60
# [16] = Table 1 Run No. 2, 10 μg/ml, control 55.00 ± 37.26
SMILES,"Number of rotational movements (mean ± S.D.) [1, 5]","Number of rotational movements (mean ± S.D.) [1, 6]","Number of rotational movements (mean ± S.D.) [1, 7]","Number of rotational movements (mean ± S.D.) [1, 8]","Number of rotational movements (mean ± S.D.) [1, 9]","Number of rotational movements (mean ± S.D.) [1, 10]","Number of rotational movements (mean ± S.D.) [1, 11]","Number of rotational movements (mean ± S.D.) [1, 12]","Number of neurites/cell (mean ± S.D.) [2, 13] [neurites/cell]","Number of cells (mean ± S.E.) ([2]; Table 1 Run No. 2, 1 μg/ml)","Length of neurites (mean ± S.D.) [2, 14] [μm/cell]","Number of neurites/cell (mean ± S.D.) [2, 15] [neurites/cell]","Number of cells (mean ± S.E.) ([2]; Table 1 Run No. 2, 10 μg/ml)","Length of neurites (mean ± S.D.) [2, 16] [μm/cell]",Average of the proportions [4] [%],other results
CN1Cc2nc(N3CCNCC3)ncc2C1=O [Compound 604],10.4 ± 5.75,2.99 ± 2.91,10.6 ± 3.82,3.37 ± 1.65,11.28 ± 4.0,1.03 ± 2.9,13.33 ± 4.9,0.75 ± 2.8,2.29 ± 0.77,14.41 ± 2.98 × 10^4 /dish,76.30 ± 51.49,2.27 ± 0.62,11.85 ± 1.36 × 10^4 /dish,72.06 ± 42.79,21.30,"Length of neurites (mean ± S.D.) ([2]; Table 1, Run No. 6 by footnote, 1 μg/ml, control 42.48 ± 19.64, all *P <0.01): 58.88 ± 22.72 μm/cell; Number of neurites/cell (mean ± S.D.) ([2]; Table 1, second control group (Run No. 6 by footnote), 1 μg/ml, control 1.79 ± 0.80): 2.23 ± 0.81 neurites/cell; Cells having neurites with a length at least twice the long diameter of cell/total number of cells ([3]; Table 3 Run No. 3, 0.3 mM, control 3.9 ± 0.3): 8.6 ± 0.9%; Cells having neurites with a length at least twice the long diameter of cell/total number of cells ([3]; Table 3 Run No. 3, 1 mM, control 3.9 ± 0.3): 10.7 ± 1.3%"
CN1C(=O)Cc2cnc(N3CCNCC3)nc21 [Compound 408],12.27 ± 2.48,4.9 ± 2.38,8.57 ± 2.36,2.03 ± 1.56,11.06 ± 4.5,1.94 ± 2.0,10.94 ± 6.4,1.53 ± 2.1,2.11 ± 0.65,17.52 ± 2.57 × 10^4 /dish,66.09 ± 36.49,2.17 ± 0.66,13.07 ± 0.80 × 10^4 /dish,69.33 ± 40.68,25.33,"Cells having neurites with a length at least twice the long diameter of cell/total number of cells ([3]; Table 3 Run No. 3, 0.01 mM, control 3.9 ± 0.3): 7.9 ± 1.8%; Cells having neurites with a length at least twice the long diameter of cell/total number of cells ([3]; Table 3 Run No. 3, 0.03 mM, control 3.9 ± 0.3): 13.0 ± 1.2%; Cells having neurites with a length at least twice the long diameter of cell/total number of cells ([3]; Table 3 Run No. 3, 0.05 mM, control 3.9 ± 0.3): 23.0 ± 1.7%; Cells having neurites with a length at least twice the long diameter of cell/total number of cells ([3]; Table 3 Run No. 3, 0.1 mM, control 3.9 ± 0.3): 51.2 ± 1.5%; Cells having neurites with a length at least twice the long diameter of cell/total number of cells ([3]; Table 3 Run No. 4, 0.05 mM, control 3.1 ± 0.2): 16.8 ± 2.7%; Cells having neurites with a length at least twice the long diameter of cell/total number of cells ([3]; Table 3 Run No. 4, 0.1 mM, control 3.1 ± 0.2): 33.5 ± 2.7%; Cells having neurites with a length at least twice the long diameter of cell/total number of cells ([3]; Table 3 Run No. 4, 0.2 mM, control 3.1 ± 0.2): 44.6 ± 3.1%; Cells having neurites with a length at least twice the long diameter of cell/total number of cells ([3]; Table 3 Run No. 7, 0.01 mM, control 2.5 ± 0.7): 6.2 ± 0.9%; Cells having neurites with a length at least twice the long diameter of cell/total number of cells ([3]; Table 3 Run No. 7, 0.1 mM, control 2.5 ± 0.7): 25.0 ± 2.7%; Cells having neurites with a length at least twice the long diameter of cell/total number of cells ([3]; Table 3 Run No. 7, 0.2 mM, control 2.5 ± 0.7): 44.5 ± 2.9%; Cells having neurites with a length at least twice the long diameter of cell/total number of cells ([3]; Table 3 first Run No. 5, 0.05 mM, no control given): 12.8 ± 1.8%; Cells having neurites with a length at least twice the long diameter of cell/total number of cells ([3]; Table 3 first Run No. 5, 0.1 mM, no control given): 23.5 ± 2.5%"
